In patent US6486161B1, “Use of rifamycin derivative for treating mastitis in a domestic animal” (priority 2000, dated 2002):
≈ marks a conversion by molar mass, not a printed value. Where two headings read alike, the source gives them in different places.

Experiments:
Oral toxicity in mice = type: in vivo; conditions: orally administered to mice, 1,000 mg/kg
[1] = tested on: Staphylococcus aureus 9203; assay: MIC against the strain of the intracellular killing assay; type: cell-based
[2] = tested on: Staphylococcus aureus 9203; assay: S. aureus intracellular killing assay in bovine PMN; type: cell-based; conditions: overnight incubation (18 to 21 hours)
Description: The therapeutic effect of the rifamycin derivative (1) was determined by S. aureus intracellular killing assay in bovine polymorphonuclear neutrophil (PMN).
The procedure for PMN isolation was as described in Carlton et al. (Proc. Soc. Exp. Biol. Med. 142: 853-858 (1973)).
Bovine blood collected by venipuncture in 50-ml syringes containing 1.5% EDTA (pH 6.8) was centrifuged at 1,000×g for 25 min. The plasma-buffer layer and the top few millileters were discarded. The packed erythrocyte fraction was pooled in 0.8% NaCl-phosphate buffer (pH 6.8) and 10 ml was placed in 20 ml of sterile water for 40 seconds to lyse the erythrocytes. Immediately thereafter, 10 ml of a 2.7% NaCl-phosphate buffer solution was added to restore isotonicity. The leukocytes, consisting of ≦84% PMNs, were washed twice and suspended in HBSS. PMNs were adjusted to a final concentration of 10^7 cells per ml.
The intracellular killing assay was carried out as described in Sanchez et al. (Antimicrobial Agents and Chemotherapy 29(4): 634-638 (1986)).
Bovine blood PMNs and bacteria (1:1) were suspended in HBSS containing 10% heterologous bovine serum. The mixture was incubated for 90 minutes at 37° C. in Erlenmeyer flasks with rotational mixing at 110 rpm. Lysostaphin (5 μg/ml) was added to the mixture for the final 15 minutes of incubation. The infected PMNs were washed 3 times by low-speed centrifugation and suspended in HBSS. Cells were pipetted (1 ml) into each well of a six-well cluster dish (Bellco Glass, Inc., Vineland, N.J.) at 5×10^6 PMNs per well. PMNs were allowed to attach and form a monolayer for 10 minutes at 37° C. The supernatant fluid with unattached cells was discarded, and 2 ml of fresh HBSS was added to each well. The rifamycin derivatives to be tested were then added to the wells (one six-well plate per drug). These derivatives were dissolved in dimethylsulfoxide, and then diluted in HBSS to final solvent concentrations of 0.01% (vol/vol) or less.
After overnight incubation (18 to 21 hours) at 37° C. with 1% CO2, lysostaphin (5 μg/ml) was added to each well for 15 min (at 37° C.) to kill extracellular bacteria. The monolayers were washed with HBSS, and the cells were lysed by addition of 1 ml of water to each well. The number of viable bacteria was then estimated by plate counts on brain heart infusion agar. […] The results are shown in Table 2, wherein R is the alkyl group in the rifamycin derivative (1).

[3] = tested on: Staphylococcus aureus 6097; assay: Dose titration in the mouse mastitis model (S. aureus-induced murine mastitis); type: in vivo; conditions: mice, read 6 days after infection; for ED (mg/kg/d) Mastitis: 50% of mice without mastitis; for ED (mg/kg/d) Culture: 50% of mice with no bacteria cultured from gland
S. aureus ATCC 29213 [4] = assay: MIC, microbroth dilution, strain ATCC 29213; type: cell-based, Staphylococcus aureus
Description: (§1) Four S. aureus strains were used: S. aureus 30857, a rifampin-resistant isolate: S. aureus 6097, a strain used in the mouse mastitis test and originally from a case of gangrenous bovine mastitis; S. aureus B83-1, derived from the Newbould 305 strain; and S. aureus ATCC 29213, the in vitro control stain recommended by NCCLS.
(§2) All S. aureus strains were maintained on 3 mm glass beads immersed in trypticase soy broth (BBL Microbiology Systems, Cockeysville, Md.) with 10% glycerol and held at −70° C. until revived. Prior to testing, the strains were subcultured on tryptose blood agar base (Difco, Detroit, Mich.) supplemented with 5% sheep blood for 24 hours at 35° C.
(§3) These compounds were dissolved in 95% ethanol, a solution which was then diluted to 10% ethanol with sterile distilled water. Further dilutions were conducted in water.
(§4) MIC (Minimum Inhibitory Concentration) determinations were performed using the microbroth dilution method. (National Committee for Clinical Laboratory Standards, 1990 Approved Standard […]. Methods for dilution antimicrobial susceptibility tests for bacteria that grow aerobically, 3rd edition. National Committee for Clinical Laboratory Standards, Villanova, Pa.) The results are shown in Table 3, wherein R is the alkyl group R in the rifamycin derivative (1).

S. aureus B83-1 [5] = assay: MIC, microbroth dilution, strain B83-1; type: cell-based, Staphylococcus aureus
Description: as §1, §2, §3, §4

S. aureus ATCC 29213 [6] = assay: Mutation frequency for resistance, strain ATCC 29213; type: cell-based, Staphylococcus aureus
Description: (§5) The mutation frequency for development of resistance to the rifamycin derivative (1) as compared to rifampin was determined with selected Staphylococcus aureus strains.
as §1, §2, §3
(§6) The mutation frequency for development of resistance to the compounds tested was determined by the following method. A single colony of each strain was removed from the surface of a blood agar plate with a cotton swab, suspended in 5 ml of Mueller-Hinton broth (BBL), and streaked on the entire surface of five Mueller-Hinton agar plates. The plates were incubated overnight under aerobic conditions at 35° C., growth was removed from the agar using a sterile cotton swab, and the bacteria were suspended in 10 ml physiological saline. This bacterial suspension was the inoculum for the mutation frequency determinations. Standard plate counts were performed on the inoculum by performing serial dilutions and plating a 0.1 ml aliquot on the surface of ten Mueller-Hinton agar plates at each concentration. The plates were incubated for 18-24 hours at 35° C. under aerobic conditions and colony counts performed. Mean bacterial counts were calculated for the inoculum with each strain.
(§7) A 0.1 ml aliquot of the inoculum was then used to inoculate the entire surface of ten plates each containing 1, 10, and 100 μg/ml of the test antimicrobial agents. The plates were incubated for 18-24 hours at 35° C. under aerobic conditions and colony counts performed. Mean bacterial counts were calculated for each antimicrobial concentration and the mutation frequency calculated by dividing the number of colonies which grew on the drug containing media by the inoculum size.

S. aureus 6097 [7] = assay: Mutation frequency for resistance, strain 6097; type: cell-based, Staphylococcus aureus
Description: as §5, §1, §2, §3, §6, §7

S. aureus B83-1 [8] = assay: Mutation frequency for resistance, strain B83-1; type: cell-based, Staphylococcus aureus
Description: as §5, §1, §2, §3, §6, §7

[9] = tested on: S. aureus 30857, a rifampin-resistant isolate; assay: MIC, microbroth dilution, strain 30857; type: cell-based, Staphylococcus aureus; conditions: strain 30857
Description: as §1, §2, §3, §4

[10] = tested on: S. aureus 30857, a rifampin-resistant isolate; type: cell-based, Staphylococcus aureus; conditions: strain 30857
Description: as §5, §1, §2, §3, §6, §7

S. aureus 6097 [11] = assay: MIC, microbroth dilution, strain 6097; type: cell-based, Staphylococcus aureus
Description: as §1, §2, §3, §4

[12] = route IMM (intramammary), 1 hour after infection

## COC1/C=C/OC2(C)Oc3c(C)c(O)c4c(=O)c(c5oc6cc(N7CCN(C(C)C)CC7)cc(O)c6nc-5c4c3C2=O)NC(=O)/C(C)=C\C=C\C(C)C(O)C(C)C(O)C(C)C(OC(C)=O)C1C (stereo not shown) [R = isopropyl]
Oral toxicity in mice
  toxicity: did not show any toxicity
[1]
  MIC: ≦0.03 μg/ml
[2]; 1X MIC
  % reduction: 100%
  CFU/ml ISD (×10^3): 0.0 CFU/ml (×10^3)
[2]; 100X MIC
  % reduction: 100%
  CFU/ml ISD (×10^3): 0.0 CFU/ml (×10^3)
[3]; [12]
  ED (mg/kg/d) Mastitis: 0.2 mg/kg/day
[3]; route IMM (intramammary)
  ED (mg/kg/d) Culture: 0.2 mg/kg/day
[3]; route SC (subcutaneous)
  ED (mg/kg/d) Culture: 0.6 mg/kg/day
  ED (mg/kg/d) Mastitis: 0.4 mg/kg/day

## COC1/C=C/OC2(C)Oc3c(C)c(O)c4c(=O)c(c5oc6cc(N7CCN(CC(C)C)CC7)cc(O)c6nc-5c4c3C2=O)NC(=O)/C(C)=C\C=C\C(C)C(O)C(C)C(O)C(C)C(OC(C)=O)C1C (stereo not shown) [R = isobutyl]
S. aureus ATCC 29213 [4]
  MIC: 1.9 ng/mL (≈ 2.02 nM)
S. aureus B83-1 [5]
  MIC: 1.9 ng/mL (≈ 2.02 nM)
Oral toxicity in mice
  toxicity: did not show any toxicity
S. aureus ATCC 29213 [6]; 1 μg/ml
  Mutation frequency: 3.0 × 10^−8
S. aureus ATCC 29213 [6]; 10 μg/ml
  Mutation frequency: 3.7 × 10^−8
S. aureus ATCC 29213 [6]; 100 μg/ml
  Mutation frequency: 3.5 × 10^−8
S. aureus 6097 [7]; 1 μg/ml
  Mutation frequency: 9.5 × 10^−8
S. aureus 6097 [7]; 10 μg/ml
  Mutation frequency: 8.9 × 10^−8
S. aureus 6097 [7]; 100 μg/ml
  Mutation frequency: 9.9 × 10^−8
[1]
  MIC: ≦0.03 μg/ml
[2]; 1X MIC
  % reduction: 95.0%
  CFU/ml ISD (×10^3): 0.15 ± 0.06 CFU/ml (×10^3)
[2]; 100X MIC
  % reduction: 100%
  CFU/ml ISD (×10^3): 0.0 CFU/ml (×10^3)
S. aureus B83-1 [8]; 1 μg/ml
  Mutation frequency: 5.0 × 10^−8
S. aureus B83-1 [8]; 10 μg/ml
  Mutation frequency: 5.2 × 10^−8
S. aureus B83-1 [8]; 100 μg/ml
  Mutation frequency: 4.7 × 10^−8
[3]; [12]
  ED (mg/kg/d) Mastitis: 0.3 mg/kg/day
[3]; route IMM (intramammary)
  ED (mg/kg/d) Culture: 0.3 mg/kg/day
[3]; route SC (subcutaneous)
  ED (mg/kg/d) Culture: 3.5 mg/kg/day
  ED (mg/kg/d) Mastitis: 3.5 mg/kg/day
[9]
  MIC: >4000 ng/mL
[10]; 1 μg/ml
  Mutation frequency: >1.0 × 10^−7
[10]; 10 μg/ml
  Mutation frequency: >1.0 × 10^−7
[10]; 100 μg/ml
  Mutation frequency: >1.0 × 10^−7
S. aureus 6097 [11]
  MIC: 0.98 ng/mL (≈ 1.04 nM)

## Cc1onc(-c2ccccc2Cl)c1C(=O)N[C@@H]1C(=O)N2[C@@H]1SC(C)(C)[C@@H]2C(=O)O [Cloxacillin, reference compound]
[2]; 100X MIC
  % reduction: 0.0%
  CFU/ml ISD (×10^3): 5.9 ± 1.9 CFU/ml (×10^3)

## COC1/C=C/OC2(C)Oc3c(C)c(O)c4c(=O)c(c5oc6cc(N7CCN(C8CC8)CC7)cc(O)c6nc-5c4c3C2=O)NC(=O)/C(C)=C\C=C\C(C)C(O)C(C)C(O)C(C)C(OC(C)=O)C1C (stereo not shown) [R = cyclopropyl]
Oral toxicity in mice
  toxicity: did not show any toxicity

## CCN1CCN(c2cc(O)c3nc4c5c6c7c(C)c(O)c5c(=O)c(c-4oc3c2)NC(=O)/C(C)=C\C=C\C(C)C(O)C(C)C(O)C(C)C(OC(C)=O)C(C)C(OC)/C=C/OC(C)(O7)C6=O)CC1 (stereo not shown) [R = ethyl]
Oral toxicity in mice
  toxicity: did not show any toxicity
[1]
  MIC: ≦0.03 μg/ml
[2]; 1X MIC
  % reduction: 97.0%
  CFU/ml ISD (×10^3): 0.09 ± 0.04 CFU/ml (×10^3)
[2]; 100X MIC
  % reduction: 100%
  CFU/ml ISD (×10^3): 0.0 CFU/ml (×10^3)
[3]; [12]
  ED (mg/kg/d) Mastitis: 0.3 mg/kg/day
[3]; route IMM (intramammary)
  ED (mg/kg/d) Culture: 0.4 mg/kg/day
[3]; route SC (subcutaneous)
  ED (mg/kg/d) Culture: 1.5 mg/kg/day
  ED (mg/kg/d) Mastitis: 0.4 mg/kg/day
